# Activity calls are given as the source filed them. For most assays here, no stated cut-off is given here; in the data, actives have a measured EC50 and inactives only a lower limit.
# Assays:
# Cytochrome P450 2D6 = Cytochrome P450 2D6 (Homo sapiens, UniProt P10635);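 further: CYP2D6 member of a cytochrome P450 panel assay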
# Cytochrome P450 2C9 = Cytochrome P450 2C9 (Homo sapiens, UniProt P11712)
# [1] = target: T1, RNA-binding protein pos-1 (Caenorhabditis elegans, UniProt G5EF15); assay: inhibitors of POS-1/mex-3 RNA binding, dose response, biochemical, fluorescence polarization (AID 1964);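 further: purified POS-1 fused to maltose binding protein made in E. coli; potency of compounds blocking POS-1 binding to fluorescent RNA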
# T1 sequence (G5EF15 whole entry): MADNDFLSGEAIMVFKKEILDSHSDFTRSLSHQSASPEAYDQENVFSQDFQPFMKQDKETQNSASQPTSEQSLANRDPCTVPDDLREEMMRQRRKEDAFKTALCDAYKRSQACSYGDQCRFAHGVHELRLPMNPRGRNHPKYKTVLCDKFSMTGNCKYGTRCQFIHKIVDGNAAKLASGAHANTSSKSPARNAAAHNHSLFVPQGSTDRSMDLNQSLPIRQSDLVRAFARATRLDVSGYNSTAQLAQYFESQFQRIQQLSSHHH
# [2] = target: T2, Zinc finger protein mex-5 (Caenorhabditis elegans, UniProt Q9XUB2); assay: MEX-5/TCR-2 RNA interaction inhibitors, dose response, biochemical, C. elegans, fluorescence polarization (AID 1960)
# T2 sequence (Q9XUB2 whole entry): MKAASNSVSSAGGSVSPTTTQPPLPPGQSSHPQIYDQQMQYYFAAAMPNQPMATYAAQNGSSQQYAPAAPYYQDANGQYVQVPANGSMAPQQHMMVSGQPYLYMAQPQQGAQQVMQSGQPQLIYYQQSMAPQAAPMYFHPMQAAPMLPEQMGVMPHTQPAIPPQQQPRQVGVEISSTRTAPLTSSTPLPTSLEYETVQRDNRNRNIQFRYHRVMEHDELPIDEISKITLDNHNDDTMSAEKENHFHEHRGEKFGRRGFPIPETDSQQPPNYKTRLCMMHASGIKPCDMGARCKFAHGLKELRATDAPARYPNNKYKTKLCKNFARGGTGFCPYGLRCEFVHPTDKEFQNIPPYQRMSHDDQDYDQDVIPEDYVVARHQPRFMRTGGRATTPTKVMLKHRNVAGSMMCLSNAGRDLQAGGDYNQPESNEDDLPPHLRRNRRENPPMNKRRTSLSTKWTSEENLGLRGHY
# [3] = tested on: Streptococcus sp. 'group A'; assay: growth inhibition of control SK(-) GAS strain, dose response, counter-screen for streptokinase expression inhibitor project, luminescence, kanamycin, BacTiterGlo, confirmation (AID 1900); type: functional, organism-based
# Streptococcus = assay: Group A Streptococcus viability loss, dose response, counter-screen for streptokinase expression inhibitor project, luminescence, BacTiterGlo (AID 1915); type: functional, organism-based;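 further: potency for reduction of bacterial viability or growth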
# Streptokinase A = target: T3, Streptokinase A (Streptococcus pyogenes serotype M1, UniProt P10520); assay: S. pyogenes streptokinase expression inhibitors, potency, dose response, plasminogen activation absorbance, OD405 (AID 1914); type: functional, Streptococcus pyogenes M1 GAS;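 further: secreted streptokinase activity via plasminogen activation per viability signal from cell pellet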
# T3 sequence (P10520 whole entry): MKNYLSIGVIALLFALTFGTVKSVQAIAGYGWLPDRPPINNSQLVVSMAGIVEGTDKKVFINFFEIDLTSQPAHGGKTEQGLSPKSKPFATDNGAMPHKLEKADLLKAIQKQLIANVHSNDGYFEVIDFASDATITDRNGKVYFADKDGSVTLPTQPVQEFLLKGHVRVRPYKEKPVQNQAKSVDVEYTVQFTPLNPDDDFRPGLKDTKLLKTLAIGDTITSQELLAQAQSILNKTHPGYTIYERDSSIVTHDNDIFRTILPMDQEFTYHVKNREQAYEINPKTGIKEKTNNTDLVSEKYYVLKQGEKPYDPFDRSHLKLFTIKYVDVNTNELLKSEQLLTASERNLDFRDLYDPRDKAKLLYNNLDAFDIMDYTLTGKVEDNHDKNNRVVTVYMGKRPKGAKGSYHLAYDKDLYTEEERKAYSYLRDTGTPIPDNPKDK
# Cytochrome P450 1A2 = target: T4, Cytochrome P450 1A2 (Homo sapiens, UniProt P05177);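 further: PubChem cytochrome P450 panel assay, CYP1A2 panel member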
# T4 sequence (P05177 whole entry): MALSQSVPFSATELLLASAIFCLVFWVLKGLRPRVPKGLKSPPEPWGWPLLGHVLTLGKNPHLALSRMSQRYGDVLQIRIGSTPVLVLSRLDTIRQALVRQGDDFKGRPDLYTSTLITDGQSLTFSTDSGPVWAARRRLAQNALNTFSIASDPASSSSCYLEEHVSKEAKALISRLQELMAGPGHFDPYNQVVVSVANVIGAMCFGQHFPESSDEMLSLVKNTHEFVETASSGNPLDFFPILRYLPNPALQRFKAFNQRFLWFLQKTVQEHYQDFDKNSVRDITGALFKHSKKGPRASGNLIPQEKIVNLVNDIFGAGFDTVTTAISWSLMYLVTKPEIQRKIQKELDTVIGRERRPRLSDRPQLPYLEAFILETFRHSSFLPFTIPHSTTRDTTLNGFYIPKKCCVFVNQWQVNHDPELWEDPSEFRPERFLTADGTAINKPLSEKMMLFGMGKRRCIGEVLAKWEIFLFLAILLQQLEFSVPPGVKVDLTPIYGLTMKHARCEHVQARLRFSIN
# INS1 = assay: beta cell apoptosis inhibitors, cytokine rescue, dose response, luminescence, retest (AID 449756); type: functional, cell-based; settings: Rattus norvegicus;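 further: cell death triggered by IL-1 beta plus TNF-alpha plus IFN-gamma mixture; protective hits raise ATP signal compared with cytokine alone wells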
# [4] = inhibitors of intracellular T. cruzi replication, confirmation, NIH3T3 host cells, beta-gal luminescence (AID 2044); type: functional, cell-based;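 further: intracellular parasites grown in NIH/3T3 mouse fibroblasts as host cells; luminescent beta-galactosidase reporter signal from transgenic T. cruzi replicating inside host cells; inhibitors lower the luminescence signal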
# [5] = cytotoxicity toward NIH3T3 fibroblasts, dose response, counter-screen, cell-based, ATP luminescence, mouse fibroblasts (AID 2010); type: functional;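 further: cells exposed to compound for about 90 hours before reading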
# Chain of Cytochrome P450 2C9 (P11712 whole entry, the tested form may be a part): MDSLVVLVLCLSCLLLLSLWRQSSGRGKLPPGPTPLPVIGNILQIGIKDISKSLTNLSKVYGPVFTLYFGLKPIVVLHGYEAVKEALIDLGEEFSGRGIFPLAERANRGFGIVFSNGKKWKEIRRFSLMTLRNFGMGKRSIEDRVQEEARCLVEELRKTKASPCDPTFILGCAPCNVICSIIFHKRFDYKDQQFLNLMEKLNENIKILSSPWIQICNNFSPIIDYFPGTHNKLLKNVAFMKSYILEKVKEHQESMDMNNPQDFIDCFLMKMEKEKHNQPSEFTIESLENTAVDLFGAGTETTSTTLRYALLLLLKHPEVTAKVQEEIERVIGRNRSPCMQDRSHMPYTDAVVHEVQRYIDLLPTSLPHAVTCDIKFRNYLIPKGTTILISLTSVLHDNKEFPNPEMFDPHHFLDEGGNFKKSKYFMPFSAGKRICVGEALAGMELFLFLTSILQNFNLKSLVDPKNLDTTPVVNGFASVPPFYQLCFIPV
# Chain of Cytochrome P450 2D6 (P10635 whole entry): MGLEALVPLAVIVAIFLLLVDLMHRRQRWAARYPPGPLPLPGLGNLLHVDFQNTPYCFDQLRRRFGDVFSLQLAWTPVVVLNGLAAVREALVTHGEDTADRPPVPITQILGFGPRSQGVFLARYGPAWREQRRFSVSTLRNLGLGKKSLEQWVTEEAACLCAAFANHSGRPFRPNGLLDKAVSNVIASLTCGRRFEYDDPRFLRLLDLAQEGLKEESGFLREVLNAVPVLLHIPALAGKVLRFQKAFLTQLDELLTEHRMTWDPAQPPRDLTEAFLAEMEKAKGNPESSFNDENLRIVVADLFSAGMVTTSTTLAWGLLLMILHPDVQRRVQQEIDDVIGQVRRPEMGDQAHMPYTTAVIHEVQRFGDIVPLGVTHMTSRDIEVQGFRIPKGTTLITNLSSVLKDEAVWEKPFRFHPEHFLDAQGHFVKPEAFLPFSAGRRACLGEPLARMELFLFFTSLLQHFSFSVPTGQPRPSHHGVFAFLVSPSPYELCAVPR
smiles,measurement,setting,value
Cc1c(NC(=O)C(Sc2ccccc2)c2ccccc2)cccc1[N+](=O)[O-] (stereo unspecified),AC50,Cytochrome P450 2D6,3.16 µM (inconclusive)
C/C(=N/Nc1ccc2ccccc2n1)c1ccccc1O,AC50,Cytochrome P450 2C9,2.51 µM (inconclusive)
O=C(Cc1ccccc1)NNC(=O)c1cnccn1,EC50,[1],> 300 µM (not active)
same,EC50,[2],41.4 µM (active)
O=S(=O)(Nc1cccnc1Cl)c1ccc2c(c1)OCCO2,AC50,Cytochrome P450 2C9,15.8 µM (inconclusive)
Cc1cc(NCc2ccccn2)ccc1Br,AC50,Cytochrome P450 2C9,7.08 µM (inconclusive)
O=C(NCCc1ccccn1)c1ccc(OC2CCN(Cc3ccccn3)CC2)cc1,EC50,[3],> 150 µM (not active)
same,EC50,Streptococcus,> 150 µM (not active)
same,EC50,Streptokinase A,> 150 µM (not active)
CC[C@H](C)C(=O)O[C@H]1CCC=C2C=C[C@H](C)[C@H](CC[C@@H]3C[C@H](O)CC(=O)O3)[C@H]21,AC50,Cytochrome P450 1A2,31.6 µM (inconclusive)
same,AC50,Cytochrome P450 2D6,31.6 µM (inconclusive)
CSCC(C)N1CCC(N2CCC(C(=O)NCc3ccccn3)CC2)CC1 (stereo unspecified),EC50,[1],161 µM (active)
same,EC50,[2],> 300 µM (not active)
Cc1cccc(-n2c(N)c(-c3nc4ccccc4n3C)c3nc4ccccc4nc32)c1,EC50,[3],3.66 µM (active)
same,EC50,Streptococcus,> 150 µM (not active)
same,EC50,Streptokinase A,> 150 µM (not active)
CC1CCN(c2ccc(NC(=O)c3ccc([N+](=O)[O-])o3)cc2)CC1,AC50,INS1,10.3 µM (active)
same,EC50,[4],> 16 µM (not active)
same,EC50,[5],4.41 µM (active)
COc1cc([N+](=O)[O-])cc(/C=N/NC(=O)C(C)Nc2cccc(C)c2)c1O (stereo unspecified),EC50,[3],10.9 µM (active)
same,EC50,Streptococcus,> 150 µM (not active)
same,EC50,Streptokinase A,> 150 µM (not active)
COc1ccc(C(=O)N/N=C(\C)Cn2nc([N+](=O)[O-])cc2C)cc1,AC50,Cytochrome P450 1A2,20 µM (inconclusive)
CCOC(=O)C1(S(=O)(=O)c2ccc(Cl)cc2)CCN(Cc2ccc(Cl)cc2)CC1,AC50,Cytochrome P450 1A2,31.6 µM (inconclusive)
Cc1ccccc1OCCN=C(S)Nc1ccccc1,AC50,Cytochrome P450 1A2,3.16 µM (inconclusive)
same,AC50,Cytochrome P450 2C9,10 µM (inconclusive)
NS(=O)(=O)c1ccc(NCc2cnc3ccccc3c2)cc1,AC50,Cytochrome P450 1A2,1.58 µM (inconclusive)
O=C(O)c1ccccc1NCn1c(=S)sc2ccccc21,AC50,Cytochrome P450 1A2,0.501 µM (inconclusive)
CCc1c2c(nc3cccc(SC)c13)COC2,AC50,Cytochrome P450 2D6,39.8 µM (inconclusive)
CCN(CC)S(=O)(=O)c1ccc(Cl)c(C(=O)Nc2ccc(Cl)cc2[N+](=O)[O-])c1,AC50,INS1,7.83 µM (active)
Cc1c(CCC(=O)O)c(=O)oc2cc3occ(-c4ccc(Cl)cc4)c3cc12,EC50,[3],7.96 µM (active)
same,EC50,Streptococcus,> 150 µM (not active)
same,EC50,Streptokinase A,> 150 µM (not active)
CC1(CCl)[N+]([O-])=C2CCCCC2=[N+]1[O-],EC50,[1],> 300 µM (not active)
same,EC50,[2],121 µM (active)
Cc1sc2[nH]c(-c3ccccn3)nc(=O)c2c1-c1ccccc1,EC50,Streptokinase A,> 150 µM (not active)

# Reference: ChEMBL document CHEMBL1201862, “PubChem BioAssay data set” (2004)
